# Assay results reported in publication PMC7824081, “Inhibition of DOT1L by Half-Selenopsammaplin A Analogs Suppresses Tumor Growth and EMT-Mediated Metastasis in Triple-Negative Breast Cancer” (Pharmaceuticals, 2020).
# Columns and labels:
# [1] = system: MDA-MB-231 cells; assay: Transwell cell invasion assay; format: cell-based, human; settings: 24 h pretreatment, 24 h Transwell
# Experimental: Twenty-four-well Transwell membrane inserts (diameter: 6.5 mm, pore size: 8 μm; Corning, Tewksbury, MA, USA) were each coated with 10 μL of type I collagen (0.5 mg/mL, BD Biosciences, San Diego, CA, USA) and 20 μL of a 1:20 mixture of Matrigel (BD Biosciences) in PBS. After treatment with the indicated compounds for 24 h, MDA-MB-231 human TNBC cells were harvested, resuspended in serum-free medium, and plated (2 × 10^5 cells/chamber) in the upper chambers of the Matrigel-coated Transwell inserts. Medium containing 30% FBS was used as a chemoattractant in the lower chambers. After a 24 h incubation, the cells that had migrated to the outer surfaces of the lower chambers were fixed and stained using the Diff-Quik Staining Kit (Sysmex, Kobe, Japan) and imaged using a Vectra 3.0 Automated Quantitative Pathology Imaging System (Perkin Elmer, Waltham, MA, USA). Representative images from three separate experiments are shown, and the numbers of invaded cells were counted in 5 randomly selected microscopic fields (200× magnification).
# [2] = system: MDA-MB-231 cells; assay: Wound healing assay (cell migration); format: cell-based, human; settings: 24 h
# Experimental: MDA-MB-231 human TNBC cells were grown to 90% confluence in a 6-well plate. Subsequently, each cell monolayer was artificially wounded using a Scratcher (SPL Life Sciences, Pocheon, Republic of Korea), and the detached cells were removed by washing with phosphate-buffered saline (PBS, Invitrogen Corp., Carlsbad, CA, USA). The wounded cultures were then incubated with medium containing 1% FBS and various concentrations of 9l and PsA for 24 h. The wounds were photographed at 0 and 24 h under an inverted microscope (Olympus, Tokyo, Japan). The wound areas were quantified using ImageJ software (National Institutes of Health, Bethesda, MD, USA) and presented as the percent wound healing (%) relative to the wound area at 0 h.
# [3] = system: MCF10A normal breast epithelial cells; assay: SRB cell proliferation assay, MCF10A; format: cell-based, human; settings: Homo sapiens, MCF-10A, 72 h
# Experimental: (§1) Human breast epithelial cell line (MCF10A) and human TNBC cell lines (MDA-MB-468, MDA-MB-231, Hs578T, and HCC38 cells) were provided by the American Type Culture Collection (Manassas, VA, USA). MCF10A cells were cultured in Dulbecco’s Modified Eagle’s Medium/Nutrient Mixture F-12 containing 5% donor horse serum, 100 ng/mL cholera toxin, 10 µg/mL human insulin, 20 ng/mL epidermal growth factor, 0.5 µg/mL hydrocortisone, and penicillin-streptomycin (sodium penicillin G: 100 units/mL; streptomycin: 100 μg/mL). The TNBC cells were cultured in medium [Dulbecco’s Modified Eagle’s Medium for MDA-MB-468, MDA-MB-231, and Hs578T cells; Roswell Park Memorial Institute 1640 medium for HCC38 cells] supplemented with penicillin-streptomycin and 10% fetal bovine serum at 37 °C in a humidified incubator with 5% carbon dioxide. MCF10A cells were cultured in DMEM/F12 containing 5% donor horse serum, 100 ng/mL cholera toxin, 10 µg/mL human insulin, 20 ng/mL epidermal growth factor, 0.5 µg/mL hydrocortisone and penicillin-streptomycin. All reagents used for cell culture, including culture medium, fetal bovine serum, trypsin-EDTA solution (1×), and penicillin-streptomycin solution (100×), were purchased from Gibco (Grand Island, NE, USA). Laemmli sample buffer (2×) and 2-mercaptoethanol were purchased from Bio-Rad Laboratories, Inc. (Hercules, CA, USA). EPZ-5676 was purchased from Cayman Chemical (Ann Arbor, MI, USA). Dimethyl sulfoxide (DMSO), bicinchoninic acid, copper (II) sulfate solution, bovine serum albumin (BSA), trichloroacetic acid, sulforhodamine B (SRB), and paclitaxel were purchased from Sigma–Aldrich (St. Louis, MO, USA).
# (§2) Cell proliferation was evaluated using the SRB assay. Briefly, cells were seeded in 96-well plates and incubated for 30 min (for 0-day controls) or treated with test compounds for the times indicated. After incubation, the cells were fixed, dried, and stained with 0.4% (w/v) SRB in 1% (v/v) acetic acid solution. Unbound dye was removed by washing, and stained cells were dissolved in 10 mM Tris (pH 10.0). Cell proliferation was then determined by measuring the absorbance at 515 nm.
# [4] = system: other histone H3 methylated lysine residues in MDA-MB-231 cells; assay: Western blotting of other methylated histone H3 lysine residues in MDA-MB-231 cells; format: cell-based, human; settings: 48 h
# Experimental: Total cell lysates were prepared in 2× sample loading buffer [250 mM Tris-HCl (pH 6.8), 10% glycerol, 4% sodium dodecyl sulfate (SDS), 2% β-mercaptoethanol, 0.006% bromophenol blue, 5 mM sodium orthovanadate, and 50 mM sodium fluoride; Bio-Rad, Hercules, CA, USA]. The protein concentrations of samples were quantified using the bicinchoninic acid (BCA) method and a BCA Protein Assay Kit (Thermo Fisher Scientific, Waltham, MA, USA). Equal amounts of protein (5–20 μg) were separated by 6–13% SDS-polyacrylamide gel electrophoresis (PAGE) and transferred to polyvinylidene fluoride membranes (Millipore, Bedford, MA, USA). The membranes were blocked with 5% bovine serum albumin (Sigma-Aldrich) and then probed with anti-DOT1L, anti-H3K79me2, anti-β-Actin, anti-histone H3, anti-H3K4me2, anti-H3K27me2, anti-H3K36me2, anti-H3K79me1, anti-H3K79me3, and anti-Vimentin antibodies purchased from Cell Signaling Technology (Beverly, MA, USA) or with anti-E-cadherin and anti-N-cadherin antibodies purchased from (BD Biosciences, San Jose, CA, USA). The blots were detected using a WEST-Queen detection system (iNtRON Biotechnology, Seongnam, Korea).
# [5] = system: MDA-MB-231 TNBC cells; assay: SRB cell proliferation assay, MDA-MB-231; format: cell-based, human
# Experimental: as §1, §2
# [6] = target: T1, DOT1L (Homo sapiens, UniProt Q8TEK3); assay: DOT1L enzyme activity assay (cell-free); format: biochemical; settings: 500 ng/well DOT1L, 2 h incubation
# T1 construct: purchased BPS Bioscience 52202
# Experimental: DOT1L enzyme activity was measured using 5 μM S-adenosyl methionine (SAM) as the methyl group donor, synthesized DOT1L substrate as the substrate, and 25 ng/μL DOT1L enzymes from BPS Bioscience (Cat. No. 52202; San Diego, CA, USA) according to the manufacturer’s instructions.
# T1 sequence (Q8TEK3 whole entry): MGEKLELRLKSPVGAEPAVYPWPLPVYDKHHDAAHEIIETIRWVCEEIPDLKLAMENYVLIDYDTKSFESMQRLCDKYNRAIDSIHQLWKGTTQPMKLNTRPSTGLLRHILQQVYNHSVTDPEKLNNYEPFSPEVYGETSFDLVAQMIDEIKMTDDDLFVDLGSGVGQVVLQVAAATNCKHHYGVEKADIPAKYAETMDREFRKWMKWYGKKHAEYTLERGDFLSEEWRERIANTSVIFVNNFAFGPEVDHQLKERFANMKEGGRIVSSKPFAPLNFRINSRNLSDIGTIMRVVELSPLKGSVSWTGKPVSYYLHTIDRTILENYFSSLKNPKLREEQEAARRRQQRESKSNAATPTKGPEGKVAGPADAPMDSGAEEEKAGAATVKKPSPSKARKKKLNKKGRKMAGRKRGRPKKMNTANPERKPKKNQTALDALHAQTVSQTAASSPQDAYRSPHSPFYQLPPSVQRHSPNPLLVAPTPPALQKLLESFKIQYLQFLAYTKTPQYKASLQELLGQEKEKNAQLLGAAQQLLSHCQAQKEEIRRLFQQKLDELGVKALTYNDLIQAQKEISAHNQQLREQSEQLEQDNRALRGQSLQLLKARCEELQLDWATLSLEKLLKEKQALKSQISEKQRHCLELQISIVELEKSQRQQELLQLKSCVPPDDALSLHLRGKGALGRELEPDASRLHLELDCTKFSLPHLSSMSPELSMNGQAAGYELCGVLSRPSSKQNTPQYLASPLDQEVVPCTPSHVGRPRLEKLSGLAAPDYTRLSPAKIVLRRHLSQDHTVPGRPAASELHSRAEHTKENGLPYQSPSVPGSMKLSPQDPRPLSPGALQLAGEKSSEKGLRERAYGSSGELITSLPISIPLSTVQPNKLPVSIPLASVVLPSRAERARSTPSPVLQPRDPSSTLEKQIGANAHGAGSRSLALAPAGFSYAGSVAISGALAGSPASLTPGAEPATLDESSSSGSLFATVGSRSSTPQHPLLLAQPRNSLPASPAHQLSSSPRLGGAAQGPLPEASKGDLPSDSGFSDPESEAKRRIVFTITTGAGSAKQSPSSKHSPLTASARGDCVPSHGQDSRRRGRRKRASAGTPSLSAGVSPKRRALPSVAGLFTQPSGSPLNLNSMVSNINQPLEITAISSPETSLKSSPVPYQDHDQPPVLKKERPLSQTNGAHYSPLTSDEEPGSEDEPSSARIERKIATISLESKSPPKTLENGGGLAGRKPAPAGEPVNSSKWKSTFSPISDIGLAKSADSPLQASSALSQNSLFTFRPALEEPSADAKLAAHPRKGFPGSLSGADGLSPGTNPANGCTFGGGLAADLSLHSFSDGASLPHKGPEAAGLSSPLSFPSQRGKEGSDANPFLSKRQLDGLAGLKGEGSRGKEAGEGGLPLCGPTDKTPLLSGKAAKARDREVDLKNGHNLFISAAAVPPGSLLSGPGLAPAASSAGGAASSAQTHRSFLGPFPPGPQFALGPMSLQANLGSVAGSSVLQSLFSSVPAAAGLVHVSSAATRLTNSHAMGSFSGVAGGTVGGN
compound,measurement,setting,value
"CC(C)(C)c1ccc(C/C(=N\O)C(=O)NCC[Se]Sc2ccccc2)cc1 [9l, (E)-3-(4-(tert-Butyl)phenyl)-2-(hydroxyimino)-N-(2-((phenylthio)selanyl)ethyl)propanamide]",cell invasion,[1],significantly inhibited
same,wound closure (cell migration),[2],significantly inhibited
same,IC50,[3],25.9 µM
same,other histone H3 methylated lysine residues,[4],not affected
same,IC50,"[5]; Homo sapiens, MDA-MB-231, 72 h, SRB assay",0.16 µM
same,Therapeutic Index,[5]; ratio of IC50 values between MCF10A and MDA-MB-231 cells,161.63
same,IC50,[6],0.363 µM
